In patent publication US10583181B2, “Recombinant multiple domain fusion protein mitogens and use thereof for inducing enhancement or repression of antigen-specific immunity” (priority 2008, dated 2020):
Entries after “also recorded” stand apart in the source; their conditions may differ.

Assays:
[1] = test system: PRDI-BF1; experiment: PRDI-BF1 RNA by RT-PCR; type: cell-based, human; conditions: 0.1 μM, 3 days
Experimental: (§1) Using specific primers, PRDI-BF1 RNA was amplified by RT-PCR (20 cycles) from cytoplasmic RNA derived from PBL cells stimulated for three days with fusion proteins (0.1 μM). T-bet and GATA3 RNAs were amplified by RT-PCR (25 cycles) from cytoplasmic RNA derived from CD4^+ T cells stimulated for five days with fusion proteins (0.1 μM). Each sample was subjected to electrophoresis on agarose gels and stained with ethidium bromide (EtBr) to detect amplified fragments: 594 bp for PRDI-BF1, 206 bp for T-bet and 131 bp for GATA3.
PBMCs were stimulated with fusion proteins (0.1 μM) for three days. The total RNA was assayed for the message of PRDI-BF1 by RT-PCR. Each sample was electrophoresed on agarose gels and stained with ethidium bromide (EtBr) to detect amplified fragments. The data represent the results from three experiments with similar results.

[2] = test system: OVA; experiment: Anti-OVA IgG response in immunized mice (ELISA titer); type: in vivo, Balb/c mice
Experimental: Balb/c mice (4-6 wks of age) were primed intra peritoneal (i.p.) route with 0.1 ml of protein antigens, OVA albumin (Sigma) or GSK […] (GlaxoSmithKline, Mississauga, Ontario, Canada), in the presence and absence of fusion protein or cDNA harboring plasmid. To determine the antigen-specific IgG titer in the serum of the individual mouse, ELISA were performed using 0.1 μg/ml antigen-coated assay plates (Maxisorp, Nunc 44-2404-21) following the standard procedure.
Balb/c mice were immunized i.p. with 0.2 μg of OVA and 5 μg of CD40L-FasL-IgFc (indicated as Primed). On Day 14, blood samples were harvested and subsequently mice were injected with 0.2 μg of OVA (indicated as Boosted). Sera from day 14 and day 21 were analysed by ELISA for the IgG activity against OVA. […] Squares indicate mice immunized with OVA alone. Circles indicate mice immunized with both OVA and CD40L-FasL-IgFc. Numbers in squares and circles indicate individual mouse. The […] activity of pre-immune serum from each mouse was equally low at less than 50 in titer.

[3] = test system: B cell (CD19+) and monocyte (CD14+) fractions; experiment: Phenotype of CD40L-FasL-IgFc activated cells; type: cell-based, human; conditions: cultures stimulated for 5 days
[4] = test system: PBL-B cells; experiment: TNP-specific IgG/IgM secretion ELISA; type: cell-based, human; conditions: 4 days culture, supernatant ELISA
Experimental: (§2) The relative concentrations of TNP-specific human IgG and IgM in supernatants from 4 day cultures were determined by ELISA assays. TNP22-BSA (1 μg/ml) was used to coat assay plates, and alkaline phosphatase-conjugated anti-human IgG (Fab-specific) (Sigma) or anti-human IgM (μ-chain-specific) (Sigma) were used as the detection reagents. The concentration of IL-2 in fusion protein-stimulated culture supernatants was measured by human-IL-2-specific ELISA kit (Roche, Laval, QC, Canada). The lower limit of detection was 30 pg/ml in IL-2 assay.
We next assessed the effect on IgG secretion by fusion protein-induced co-clustering of CD40 and Fas in B cells. PBL-B cells were incubated with CD40L-FasL-IgFc for four days and the supernatants were assayed for IgG- and IgM-specific trinitrophenyl (TNP) hapten [Galanaud et al., Cell. Immunol., 106:234 (1987)].
PBMCs were stimulated with fusion proteins for four days. The relative concentrations of TNP-specific human IgG and IgM in supernatants were determined by ELISA assays. […] The data represent the three experiments with similar results.

[5] = test system: human B lymphoma cells (Raji, Daudi); experiment: Cell death of human B lymphoma cells after treatment; type: cell-based; conditions: Raji and Daudi cells
[6] = test system: Influenza hemaglutinin-specific T cell response; set-up: species or system Balb/c mice; conditions: mouse, in vivo, ip
[7] = test system: PBL-T cells and PBL-non-T cells; experiment: Proliferation of PBL-T cells versus PBL-non-T cells; type: cell-based, human; conditions: 0.1 μM, 3 days
Experimental: (§3) Human lymphocytes were stimulated for 3 days in 96 U-bottom well plates with various concentrations of recombinant fusion proteins. In some experiments, a NF-κB inhibitor (SN50, 18 μM, Calbiochem, San Diego, Calif., USA) and a MEK1/2 inhibitor (PD98059, 1 μg/ml, Calbiochem) were added to the cell culture media. Cell proliferation was assessed by thymidine uptake assays. Cultured cells were pulsed with 1 μCi/well of [^3H]thymidine (ICN, Costa Mesa, Calif., USA) for 18 hours and then harvested onto glass fiber filters. [^3H]thymidine incorporation was measured by standard liquid scintillation counting techniques. In some experiments, HA antigen-specific cell proliferation response was assayed by the MTT assay [van de Loosdrecht et al., J. Immunol. Methods, 174:311(1994)], which is a direct measure of cell viability.
PBL-T cells and PBL-non-T cells were stimulated with CD40L-FasL-IgFc (0.1 μM) for three days prior to proliferation assay. […] The data represent the three experiments with similar results. […]
PBMCs derived from normal healthy human adults were separated from whole blood using Ficoll-Paque Plus. […] The purity of human PBL-T cells was greater than 97% as determined by CD3 staining and flow cytometry. […] CD4^+ and CD8^+ T cells were purified to greater than 90% positive for CD4 and CD8, respectively as determined by flow cytometry studies.

[8] = test system: Influenza hemaglutinin; set-up: species or system Balb/c mice; conditions: mouse; for HA-specific IgG, secondary response following boost / HA-specific IgG, primary response: in vivo; for HA-specific IgG, primary response: ip
[9] = test system: human PBMCs; experiment: Proliferation of human PBMC ([3H]thymidine uptake); type: cell-based
Experimental: as §3
We cultured human PBMCs and mouse spleen cells in the presence of CD40L-FasL-IgFc. Whole blood, obtained from a healthy donor, was twice diluted with Na-PBS (pH 7.2) and peripheral blood mononuclear cells (PBMCs) were separated by Ficoll density gradients (Ficoll-Paque Plus, Amarsham Biotech) by centrifugation (Sorvall RT 6000, 1500 rpm for 15 minutes at room temperature). The peripheral blood mononuclear cells were collected from the interphase between the PBS top layer and Ficoll plus bottom layer, washed with PBS and subjected to cell proliferation assays. […]

[10] = test system: T-bet; experiment: T-bet RNA in CD4+ T cells by RT-PCR; type: cell-based, human; conditions: 5 days
Experimental: as §1
CD4^+ T cells were stimulated by B7-2-FasL-IgFc (0.1 μM) for 5 days before total RNA was harvested and tested for increased mRNA expression of T-bet (for Th1 differentiation) and GATA-3 (for Th2 differentiation) by RT-PCR. Each sample was electrophoresed on agarose gels and stained with ethidium bromide (EtBr) to detect amplified fragments: 206 bp for T-bet and 131 bp for GATA3. The data represent the three experiments with similar results.

[11] = test system: Total T cells, CD4+ T cells and CD8+ T cells; experiment: Proliferation of purified human T cells (total, CD4+, CD8+); type: cell-based
Experimental: as §3
PBMCs derived from normal healthy human adults were separated from whole blood using Ficoll-Paque Plus. Peripheral blood lymphocyte (PBL)-T cells, PBL-B cells, CD4^+ T cells, CD8^+ T cells were purified by negative selection using RosetteSep (StemCell Tec. Vancouver, BC, Canada), while non-T cells were purified by negative selection using pan-T magnet beads (M-450, Dynal, Lake Success, N.Y., USA). The purity of human PBL-T cells was greater than 97% as determined by CD3 staining and flow cytometry. […] CD4^+ and CD8^+ T cells were purified to greater than 90% positive for CD4 and CD8, respectively as determined by flow cytometry studies.
Total T cells, CD4^+ T cells and CD8^+ T cells were stimulated with either B7-2-FasL-IgFc or control fusion proteins. CD4^+ T cells and CD8^+ T cells were stimulated with various fusion proteins. After 72 hours in culture, cell proliferation was assessed. Data indicates the average and standard deviation of quadruplicate samples. The data represent the three experiments with similar results.

[12] = test system: IL-2; experiment: IL-2 production of T cells (ELISA); type: cell-based, human; conditions: 1 μg/ml, 3 days
Experimental: as §2
T cells were stimulated by B7-2-FasL-IgFc (1 μg/ml) or phytohemagglutinin (5 μg/ml) for 3 days. The concentration of IL-2 in culture supernatants was measured by ELISA assays. The lower limit of detection was 30 pg/ml in IL-2 assay. The data represent the three experiments with similar results.

[13] = test system: human Fas-apoptosis-sensitive Jurkat T cell line or human peripheral blood T lymphocytes; experiment: Cell death in Jurkat T cell line or peripheral blood T lymphocytes; type: cell-based
Excerpt: According to understanding, the strong cell activation by simultaneous stimulation of a co-stimulation receptor and another death receptor is not a predictable outcome. […] A possible explanation for the strong activation in CD28^+/Fas^+ T cells is that B7-2 and FasL must be located in the close proximity to each other, as is the case when linked together in the B7-2-FasL-IgFc fusion protein.

CD40L-FasL-IgFc: fusion protein of human CD40L extracellular domain, human FasL extracellular domain and human IgG1 Fc (SEQ ID NO: 13)
expression of PRDI-BF1 RNA [1]: increased expression
OVA-specific IgG, primary response ([2]; 0.2 μg OVA + 5 μg fusion protein i.p., day 14 sera): high titers
OVA-specific IgG after boost ([2]; boost 0.2 μg OVA on day 14, day 21 sera): increased markedly
increase of B cell (CD19+) fraction [3]: 30%
increase of monocyte (CD14+) fraction [3]: 15%
anti-TNP IgG secretion [4]: significantly increased
cell death of B lymphoma cells [5]: did not undergo cell death
HA-specific CD8+ T cell response [6]: only detectable in spleen cells immunized with CD40L-FasL-IgFc
HA-specific response by total T cells [6]: lowered the HA-specific response by total T cells
cell subset specificity of activation (T versus non-T/B cells) [7]: did not activate T lymphocytes but resulted in a strong mitogenic activity against B cells; also recorded: specific for the non-T cell subsets
HA-specific IgG, secondary response following boost [8]: far greater
HA-specific IgG, primary response [8]: significantly increased the antibody response
cell activation / mitogenic response (proliferation) of PBMC ([9]; 3 days stimulation, 3H-thymidine, active even at 0.1-0.01 μg/ml): significant cell activation; also recorded: greatly exceeded the mitogenic response induced by the co-stimulation with CD40L-IgFc and FasL-IgFc
mitogenic activity after adsorption with Polymixin B ([9]; fusion protein pre-absorbed with Polymixin B-coated beads, 3 days): did not attenuate the mitogenic activity

B7-2-FasL-IgFc: fusion protein of human B7-2 extracellular domain, FasL extracellular domain and IgG1 Fc (SEQ ID NO: 17)
T-bet transcription factor RNA ([10]; CD4+ T cells, 0.1 μM): significant increase
differentiation of CD4+ T cells in vitro ([10]; from T-bet/GATA3 RT-PCR): skewing towards Th1 subsets
T cell proliferation (mitogenic response) ([11]; 72 hours culture): strong activation of proliferation; also recorded: strong T cell-specific mitogenic response; also recorded: proliferation of both CD4^+ and CD8^+ T cells increased
magnitude of T cell proliferation compared with phytohemagglutinin (PHA) ([11]; 72 hours culture): comparable to that induced by the well-known T cell mitogen PHA; also recorded: comparable to phytohemagglutinin-induced T cell mitogenesis
dose required by CD8+ T cells to achieve similar levels of proliferation to CD4+ T cells ([11]; CD8+ versus CD4+ T cells): > 20 fold
HA-specific CD8+ T cell response [6]: undetectable
HA-specific response by total T cells [6]: suppressed the HA-specific response by total T cells
IL-2 secretion by T cells [12]: secretion of IL-2
humoral and cellular immune responses in vivo [8]: severe repression of humoral and cellular immune responses
HA-specific IgG, secondary response following boost [8]: far lower
HA-specific IgG, primary response [8]: repressed the antibody response
induction of cell death [13]: did not induce cell death
